# Measurements as given in patent publication US20250197356A1, “METHOD FOR SYNTHESIZING NUCIFERINE OR DERIVATIVE THEREOF, DERIVATIVE OF NUCIFERINE AND USE THEREOF” (HUAQIAO UNIVERSITY, priority 2022, published 2025).
# Experiments:
# [1] = TCMSP database, screening threshold OB ≥30%; cited from earlier work
# [2] = system: hyperlipidemia rats; assay: Serum biochemical indicators in high-fat diet hyperlipidemia rats; format: in vivo, SD rats
# From the text: (§1) Animals: 54 SPF-grade SD rats, weighing 120±10 g, provided by Laboratory Animal Business Department, Shanghai Family Planning Research Institute, China, Animal license number: SCXK(Shanghai)2018-0006.
# (§2) Drug to be tested: Nuciferine purchased from Shanghai Aladdin Biochemical Technology Co., Ltd., China, and its derivatives (purity >99%) that were synthesized in the laboratory by the methods of Examples 2-7.
# (§3) Other reagents: AST, ALT, TC, TG, NEFA, Bun, Cr, CAT, GSH-Px, GSH, MDA test kits, purchased from Nanjing Jiancheng Bioengineering Institute, China; HL and PL test kits, purchased from Jianglai Biotechnology Co., Ltd., China; experimental reagents such as anhydrous ethanol, xylene, isopropanol neutral gum, purchased from Sinopharm Chemical Reagent Co., Ltd., China; HE dye solution, DAB color development agent, and oil red O dye solution, purchased from KeyGEN Biotechnology Co., Ltd, China; Antibodies IL-6 and TNF-α, purchased from Abcam Limited.
# (§4) Modeling scheme: 54 adult rats of 120±10 g were selected and fed adaptively for three days. They were then randomly divided to 6 groups, 9 animals for each group. They were blank control group, model group, positive control group, nuciferine group, and nuciferine structural modification group. The blank control group was fed with normal diet. […] The feeding and modeling time was 5 weeks. Within 4 weeks after modeling, continuous administration was performed: the blank control group and model group were given 0.2 mL of distilled water by gastric gavage; the positive control group was administrated 20 mg/(kg d) of simvastatin; while the treatment group was administrated 20 mg/(kg d) of nuciferine or 20 mg/(kg d) of a derivative of nuciferine (compounds 6a-6f).
# Blood sample collection: 24 h after the last gastric gavage administration, eyeballs were taken out and blood was drawn. Whole blood was collected in an EP tube, and centrifuged at 3000 r/min and 4° C. for 10 min, and the supernatant was collected and stored at −20° C. for blood biochemical indicator test.
# (§5) Biochemical indicator determination: indicators AST, ALT, TC, TG, NEFA, Bun, Cr, CAT, GSH-Px, GSH, MDA, HL, PL were determined according to the instructions of the kits.
# [3] = system: hyperlipidemia rats; assay: Oil red O staining of liver in hyperlipidemia rats; format: in vivo, SD rats; conditions: compared with the model group, 20 mg/(kg d)
# From the text: as §1, §2
# as §4, with “6a-6f). […]” for “6a-6f).”
# [4] = system: TNF-α; assay: Immunohistochemistry of liver of hyperlipidemia rats; format: in vivo, SD rats; conditions: compared with the model group, 20 mg/(kg d)
# From the text: as §1, §2, §3
# (§6) Modeling scheme: 54 adult rats of 120±10 g were selected and fed adaptively for three days. They were then randomly divided to 6 groups, 9 animals for each group. They were blank control group, model group, positive control group, nuciferine group, and nuciferine structural modification group. The blank control group was fed with normal diet. […] The feeding and modeling time was 5 weeks. […]
# [5] = system: IL-6; assay: as above; format: in vivo, SD rats; conditions: compared with the model group, 20 mg/(kg d)
# From the text: as §1, §2, §3, §6
# [6] = system: hyperlipidemia rats; assay: Liver tissue homogenate biochemical indicators in high-fat diet hyperlipidemia rats; format: in vivo, SD rats
# From the text: as §1, §2, §3, §4
# (§7) Liver tissue sample collection: the rats were killed by dislocation, and the liver was taken out immediately after death, which was observed by naked eye to find out whether there was abnormal color and lesions, and was then rinsed with ice normal saline. The left lobe of the liver was quickly cut into small pieces and fixed in 10% formaldehyde overnight for sectioning. The tissue of the right lobe of the liver was quickly wrapped in tin box and stored at −80° C. for later use.
# Preparation of 10% liver homogenate: the liver wrapped in tin box and stored in the ultra-low temperature freezer at −80° C. was taken out, and quickly placed on an ice box. 0.2 g of liver tissue was accurately taken, and ice normal saline with a volume 9 times that of the liver issue was added thereto. 10% tissue homogenate was formed by grounding and mixing, and then centrifuged at 3000 r/min and 4° C. for 10 min. The supernatant was collected for later use.
# as §5
# [7] = system: hyperlipidemia rats; assay: Liver and kidney indexes in high-fat diet hyperlipidemia rats; format: in vivo, SD rats; conditions: 20 mg/(kg d) by gastric gavage, 4 weeks, x ± s, n = 9
# From the text: as §1
# (§8) Modeling scheme: 54 adult rats of 120±10 g were selected and fed adaptively for three days. They were then randomly divided to 6 groups, 9 animals for each group. They were blank control group, model group, positive control group, nuciferine group, and nuciferine structural modification group. The blank control group was fed with normal diet. […] The feeding and modeling time was 5 weeks.
# as §7
# [8] = system: hyperlipidemia rats; assay: Liver appearance and HE histopathological observation in hyperlipidemia rats; format: in vivo, SD rats; conditions: compared with the model group, 20 mg/(kg d)
# From the text: as §1, §8, §7
# [9] = serum, 20 mg/(kg d) by gastric gavage, 4 weeks
# [10] = serum, 20 mg/(kg d) by gastric gavage, 4 weeks, x ± s, n = 9
# [11] = liver tissue, 20 mg/(kg d) by gastric gavage, 4 weeks, x ± s, n = 9
smiles,measurement,setting,value
COc1cc2c3c(c1OC)-c1ccccc1C[C@H]3N(C)CC2 [Nuciferine],OB/% (oral bioavailability),[1],34.43%
same,"Content of HDL-C in the serum, result in words",[2]; compared with the model group,significantly increases
same,"Serum AST and ALT contents, result in words",[2]; compared with the model group,best effect
same,LDL-C,[2]; [9],0.53 ± 0.12 mmol/L
same,TC,[2]; [9],1.90 ± 0.19 mmol/L
same,TG,[2]; [9],0.48 ± 0.04 mmol/L
same,ALT (U/L),[2]; [10],13.97 ± 5.71 U/L
same,AST (U/L),[2]; [10],6.43 ± 1.56 U/L
same,Bun,[2]; [10],3.27 ± 0.22 mmol/L
same,Cr,[2]; [10],52.59 ± 4.81 µmol/L
same,Oil red O-stained liver sections: lipid accumulation (FIG. 10),[3],reduced fat accumulation
same,Expression level of TNF-α in liver (FIG. 12),[4],decrease
same,Expression level of IL-6 in liver (FIG. 11),[5],decrease
same,"HL and LPL contents in liver tissue, result in words",[6]; compared with the model group,best effect
same,"NEFA content in liver tissue, result in words",[6]; compared with the model group,significantly decreases
same,CAT (U/mgprot),[6]; [11],28.44 ± 3.34 U/mgprot
same,GSH (μmol/gprot),[6]; [11],377.68 ± 137.77 μmol/gprot
same,GSH-Px (U/mgprot),[6]; [11],720.65 ± 59.57 U/mgprot
same,HL (U/mgprot),[6]; [11],0.47 ± 0.05 U/mgprot
same,LPL (U/mgprot),[6]; [11],0.43 ± 0.07 U/mgprot
same,MDA (nmol/mgprot),[6]; [11],0.92 ± 0.15 nmol/mgprot
same,NEFA (μmol/g prot),[6]; [11],99.87 ± 8.25 μmol/g prot
same,TG (mmol/g prot),[6]; [11],0.08 ± 0.01 mmol/g prot
same,Kidney index (%),[7],0.68 ± 0.04 %
same,Liver index (%),[7],4.52 ± 0.30 %
same,HE-stained liver tissue: lipid vacuoles and inflammatory infiltration (FIG. 9),[8],lipid vacuoles in hepatocytes are significantly reduced
